According to patent publication US9938267B2, “Heterocyclic inhibitors of glutaminase” (Calithera Biosciences, Inc., priority 2011, dated 2018):
Values belong to the compound of their own block, whether it stands above or below them.

Tests used:
[1] = tested on: HCT116 colon carcinoma xenograft; test: HCT116 colon carcinoma xenograft efficacy study; assay type: in vivo; conditions: female scid/bg mice, intraperitoneal, twice daily; FIG. 1
Protocol: Certain compounds were assayed for in vivo efficacy in xenograft models as follows.
Female scid/bg mice, approximately 6 weeks of age, were implanted subcutaneously on the right flank with 5×10^6 HCT116 cells per mouse in a volume of 100 uL of sterile PBS. When tumors reached a volume of 50-100 mm^3, mice were randomized to groups of n=10 to receive either vehicle or test compound delivered twice daily by intraperitoneal injection. Tumors were measured three times per week using Vernier calipers and tumor volume calculated using the formula: Volume=(Length×Width^2/2), where length and width are the longest perpendicular sides of the tumor. Dosing continued twice daily until control tumors reached a size of 2000 mm^3. Statistical comparisons were made using a 2-way ANOVA with Bonferroni post-test.

[2] = biological target: T1, recombinant form of Glutaminase 1 (GAC) (Homo sapiens, UniProt O94925); test: Recombinant enzyme assay - time dependence (60 minutes enzyme/compound preincubation); assay type: biochemical; conditions: read-out: GAC Delta N2 IC50 60 min preinc
Protocol: (§1) The enzyme/compound mix was sealed with sealing foil (USA Scientific) and allowed to incubate, with mild agitation, for 60 minutes at 20° C. Enzymatic reaction was started with the addition of 50 μL of substrate solution (50 mM Tris-HCl pH 8.0, 0.2 mM EDTA, 150 mM K2HPO4, 0.1 mg/ml BSA, 1 mM DTT, 20 mM L-glutamine, 2 mM NAD^+, and 10 ppm antifoam) and read in a Molecular Devices M5 plate reader at 20° C. The plate reader was configured to read absorbance (λ=340 nm) in kinetic mode for 15 minutes. Data was recorded as milli-absorbance units per minute and slopes were compared to a control compound and a DMSO-only control on the same plate. Compounds with slopes less than the DMSO control were considered inhibitors and plate variability was assessed using the control compound.

[3] = tested on: P493-6 (myc "on") cells; test: Cell proliferation assay (72 hrs, Cell Titer Glo or Viacount FACS); assay type: cell-based; conditions: read-out: Cell prolif P493 72 h IC50; P493 cells, 72 h
Protocol: P493-6 (myc “on”) cells were maintained in growth media (RPMI-1640, 10% FBS, 2 mM glutamine, 100 units/ml Penicillin and 100 μg/ml streptomycin) at 37° C. with 5% CO2. For compound assay, P493-6 cells were plated in 96-well V-bottom plates on the day of compound addition in 50 μl of growth media at a cell density of 200,000 cells/ml (10,000 cells/well). Compounds were serially diluted in 100% DMSO at 200-times the final concentration. Compounds were diluted 100-fold into growth media and then 50 μl of this mixture was added to cell plates making the final concentration of DMSO 0.5%. Cells were incubated with compound for 72 hrs at 37° C. with 5% CO2 and analyzed for antiproliferative effects either by Cell Titer Glo (Promega) or FACS analysis using the Viacount (Millipore) kit on the Guava instrument.

[4] = biological target: T1, recombinant form of Glutaminase 1 (GAC); test: Recombinant enzyme assay (GAC, GDH-coupled absorbance, no preincubation); assay type: biochemical; conditions: read-out: GAC Delta N2 IC50 no preinc
Protocol: as §1, with “Enzymatic” for “The enzyme/compound mix was sealed with sealing foil (USA Scientific) and allowed to incubate, with mild agitation, for 60 minutes at 20° C. Enzymatic”, “enzyme” for “substrate”, “DTT,” for “DTT, 20 mM L-glutamine, 2 mM NAD^+, and”, “antifoam, 4 units/ml GDH, 4 mM adenosine diphosphate, and 4 nM GAC)” for “antifoam)”

[5] = tested on: Caco-2 cell monolayers; test: Caco-2 permeability assay (bidirectional); assay type: in vitro ADME
Description: Caco-2 cells are commonly used in a confluent monolayer on a cell culture insert filter. When cultured in this format and under specific conditions, the cells become differentiated and polarized such that their phenotype, morphologically and functionally resembles the enterocytes lining the small intestine. The cell monolayer provides a physical and biochemical barrier to the passage of small molecules, and is widely used across the pharmaceutical industry as an in vitro model of the human small intestinal mucosa to predict the absorption of orally administered drugs (Hidalgo et al., Gastroenterology, 1989; Artursson, J. Pharm. Sci., 1990). The correlation between the in vitro apparent permeability (P ? app) across Caco-2 monolayers and the in vivo absorption is well established (Artursson et al., Biochem. Biophys. Res. Comm., 1991).
The present assay was used to determine the bidirectional permeability of the compounds of the invention through Caco-2 cell monolayers. Caco-2 cells were grown in confluent monolayers where the media of both the apical (A) and basolateral (B) sides were at pH 7.4. Compounds were dosed at 1 μM in the presence of 200 μM Lucifer Yellow, on the apical side (A→B) or the basolateral side (B→A) for assessment, in duplicate.

Compound: O=C(CCN1CCOCC1)OCC(C(=O)Nc1nnc(CCCCc2nnc(NC(=O)C(COC(=O)CCN3CCOCC3)c3ccccc3)s2)s1)c1ccccc1 (centres unmarked) [Compound 188, {[5,5′-(butane-1,4-diyl)-bis(1,3,4-thiadiazole-5,2-diyl)]-bis(azanediyl)}-bis(3-oxo-2-phenylpropane-3,1-diyl)-bis(3-morpholinopropanoate)]
- tumor size [1]: reduced tumor size

Compound: NCc1cccc(CC(=O)Nc2nnc(CCCCc3nnc(NC(=O)Cc4cccc(CN)c4)s3)s2)c1 [Compound 325]
- IC50 [2]: 0.17 µM
- IC50 [3]: 0.03 µM
- IC50 [4]: 0.66 µM

- Significant Efflux [5]: No
Compound: O=C(Cc1cccc(OC(F)(F)F)c1)Nc1ccc(CCCCc2nnc(NC(=O)Cc3cccc(F)c3)s2)nn1 [Compound 679]
